Values of other authors, collected in patent US7141607B1, “Methods and compositions for treating and inhibiting retinal neovascularization” (Insite Vision Incorporated, priority 2000, dated 2006).

Test system: retinal neovascularization
Conditions: IP injection on days 12, 14 and 16; same animal model

Q: Which reduction in neovascularization does the source give for `CNC(=O)[C@H](Cc1ccccc1)NC(=O)[C@H](CC(C)C)[C@H](CSc1cccs1)C(=O)NO` (relative stereo) [batimastat, [2-R-[1(S*),2R*,3S*]]-N^4-hydroxy-N^1-[2-(methylamino)-2-oxo-1-(phenylmethyl)ethyl]-2-(2-methylpropyl)-3-[(2-thienylthio)methyl]butanediamide] here?
A: Its reduction in neovascularization is 72%.
